In patent US20240425491A1, “HETEROARYL COMPOUNDS USEFUL IN THE TREATMENT OF COGNITIVE DISORDERS” (University College Cardiff Consultants Limited, priority 2021, published 2024):

Columns and labels:
[1] = target: T1, human α5β3γ2 GABAARs in mouse L(tk−) cells (Homo sapiens, UniProt P18507+P31644); test: In vitro electrophysiological recording assay (α5-GABAAR relative efficacy), QPatch; type: cell-based; settings: GABA EC10-20
T1 construct: expressed in transfected cells; host or cells: mouse L(tk−) cells, dexamethasone-inducible vector pMSGneo
T1 sequence (P31644 32-462): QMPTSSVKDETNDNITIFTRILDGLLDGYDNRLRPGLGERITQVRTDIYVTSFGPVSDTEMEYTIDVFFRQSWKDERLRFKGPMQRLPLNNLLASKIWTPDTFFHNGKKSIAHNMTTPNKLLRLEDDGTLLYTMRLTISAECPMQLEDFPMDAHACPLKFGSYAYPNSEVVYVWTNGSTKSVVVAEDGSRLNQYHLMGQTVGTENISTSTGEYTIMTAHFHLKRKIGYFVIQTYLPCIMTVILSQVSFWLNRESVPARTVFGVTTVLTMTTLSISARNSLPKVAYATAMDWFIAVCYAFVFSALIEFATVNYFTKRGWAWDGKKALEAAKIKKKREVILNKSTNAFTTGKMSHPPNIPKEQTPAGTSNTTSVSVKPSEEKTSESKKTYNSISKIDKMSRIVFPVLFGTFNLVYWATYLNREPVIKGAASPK
T1 sequence (P28472 26-473 partner): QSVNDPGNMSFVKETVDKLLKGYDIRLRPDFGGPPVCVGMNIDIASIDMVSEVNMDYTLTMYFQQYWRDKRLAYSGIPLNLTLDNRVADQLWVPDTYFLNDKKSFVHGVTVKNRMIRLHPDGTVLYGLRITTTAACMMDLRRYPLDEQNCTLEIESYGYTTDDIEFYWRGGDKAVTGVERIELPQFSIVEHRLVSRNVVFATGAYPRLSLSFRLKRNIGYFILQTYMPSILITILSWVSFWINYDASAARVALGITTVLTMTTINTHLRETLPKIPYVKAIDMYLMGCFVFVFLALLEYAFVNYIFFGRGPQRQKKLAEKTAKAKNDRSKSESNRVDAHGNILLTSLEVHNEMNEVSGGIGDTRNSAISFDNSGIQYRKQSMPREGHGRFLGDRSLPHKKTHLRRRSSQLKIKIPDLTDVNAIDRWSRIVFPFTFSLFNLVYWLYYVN
T1 sequence (P18507 40-475): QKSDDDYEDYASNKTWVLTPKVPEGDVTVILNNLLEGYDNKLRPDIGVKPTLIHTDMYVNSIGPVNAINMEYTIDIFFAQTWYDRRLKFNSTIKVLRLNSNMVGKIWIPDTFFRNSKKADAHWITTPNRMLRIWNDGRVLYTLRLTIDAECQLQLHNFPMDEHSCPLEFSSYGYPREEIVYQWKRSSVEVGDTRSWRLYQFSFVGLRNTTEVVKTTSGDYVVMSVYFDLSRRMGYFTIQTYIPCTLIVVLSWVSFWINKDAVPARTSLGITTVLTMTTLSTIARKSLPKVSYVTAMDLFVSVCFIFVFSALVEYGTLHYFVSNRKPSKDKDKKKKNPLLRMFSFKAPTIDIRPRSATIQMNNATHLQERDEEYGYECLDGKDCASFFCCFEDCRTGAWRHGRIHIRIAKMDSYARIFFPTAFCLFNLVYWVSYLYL
Description: Mouse L(tk^−) cells stably expressing human α1β3γ2, α2β3γ2, α3β3γ2, α5β3γ2 GABAARs generated by transfection of the individual subunits in the dexamethasone-inducible expression vector pMSGneo in mouse L(tk^−) cells (Hadingham et al., 1993, Mol. Pharmacol. 43:970-975 and 1993, Mol. Pharmacol. 44:1211-1218) were used for binding and functional assays. For certain compounds, HEK293 cells stable expressing the human α1β3γ2L, α2β3γ2L, α3β3γ2L and α5β3γ2L GABAA receptors were used to evaluate their functional effects in a SyncroPatch electrophysiology assay.
For QPatch electrophysiology testing, 1 μM dexamethasone was added to the culture medium of L(tk^−) cells 24 hours before the recordings were performed. Cells were typically used for electrophysiology experiments 72-96 hours after splitting.
The efficacy of modulators was evaluated using either the automated patch-clamp platform QPatch16 (Sophion, Copenhagen, Denmark) or the SyncroPatch 384i (Nanion Technologies, Germany). Cells were harvested from flasks by enzymatic dissociation and re-suspended in serum-free medium.
For QPatch recordings, all experiments were carried out at room temperature (20-22° C.) using a standard whole cell procedure and physiological solutions. Gigaseals were formed upon execution of a combined suction/voltage protocol with subsequent increased suction leading to the whole-cell configuration. The currents recorded were acquired at 1 KHz and filtered at 0.3 KHz using a Bessel filter. Whole-cell currents were measured at a holding potential of −65 mV.
For QPatch recordings, the extracellular solution contained of (in mM): 145 NaCl, 4 KCl, 1 MgCl2, 2CaCl2, 10 HEPES, 10 D-glucose (pH 7.4), and the intracellular solution consisted of (in mM): 96 KCl, 28 CsCl, 25 KOH, 4.3 CaCl2), 1.4 MgCl2, 10 EGTA, HEPES, 3 MgATP (pH 7.2). The osmolarities of the extracellular and intracellular solutions were 305 and 295 mOsm respectively.
The effects of modulators were evaluated in the presence of a submaximal GABA concentration, giving typically 10-20% activation (GABA EC10-20) of the response elicited by a saturating GABA concentration. For QPatch recordings, to check and ensure baseline current stability before compound addition, five consecutive applications of GABA EC10-20 alone (each application with a 2 s duration, separated by minimum 1 min wash off periods) were performed before compound addition. The test compound was applied using the pipetting system of the QPatch system 1 min at least prior to co-application with GABA EC10-20. For SyncroPatch recordings, GABA EC20 alone was applied three times (1 s long applications, with wash steps in-between) before compound addition. This was followed by a 1-2 min pre-incubation with the test compound and then re-application of GABA EC10-20 in the presence of the compound. Finally, following a further wash step, a saturating concentration of GABA was applied, allowing the accurate evaluation for each cell of the percentage baseline activation elicited by the submaximal GABA applied.
The compounds were first dissolved in DMSO as a 10 mM stock and then further diluted to the testing concentrations so that the final DMSO concentration in the extracellular recording solution was kept constant at 0.1% for the QPatch recordings, or 0.2% for the SyncroPatch recordings.
The % efficacy of modulators was determined from the GABA elicited currents recorded in the presence and absence of the test compound, using the formula:
[((compound peak current−leak)−(GABA peak current−leak))/(GABA peak current−leak)]*100,
where ‘leak’ is the leak baseline current at −65 mV, ‘compound peak current’ is the current elicited by co-application of compound and GABA, and ‘GABA peak current’ is the current elicited by GABA alone during the 5th GABA application. The results were presented as ‘relative efficacy’ for each compound generally at a concentration equal or higher than 100 times their determined Ki. […]

[2] = target: T2, human recombinant GABAAR containing α5β3γ2 subunits (benzodiazepine site) (Homo sapiens, UniProt P18507+P31644); test: In vitro radioligand binding assay (α5-GABAAR Ki); settings: inhibition of [3H]Ro15-1788 binding, membranes of L(tk−) cells expressing human α5β3γ2; read-out: α5-GABAAR Ki
T2 construct: expressed in transfected cells; host or cells: mouse L(tk−) cells, dexamethasone-inducible vector pMSGneo
T2 sequence (P31644 32-462): as the sequence (P31644 32-462) above
T2 sequence (P28472 26-473 partner): as the sequence (P28472 26-473 partner) above
T2 sequence (P18507 40-475): as the sequence (P18507 40-475) above
Outline: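 Displacement of 4 nM [^3H]flumazenil from the benzodiazepine site, read by filtration and scintillation, gave IC50, converted to Ki (Cheng-Prusoff, saturation-derived Kd). Receptor: human α5β3γ2 membranes from L(tk^−) cells, 50 μg protein/well; 1 h, 4° C; TP003 1 μM defined nonspecific binding.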

| SMILES | α5-GABAAR Relative Efficacy (to DMCM), Qpatch ([1]; Conc 1 μM) | Ki [2] | α5-GABAAR Relative Efficacy (to DMCM), Qpatch ([1]; Conc 0.3 μM) | α5-GABAAR Relative Efficacy (to DMCM), Qpatch ([1]; Conc 3 μM) |
| --- | --- | --- | --- | --- |
| COc1nc(-c2cn[nH]c2)ccc1NC(=O)c1c(-c2ccccc2)noc1C [Example 26, N-[2-Methoxy-6-(1H-pyrazol-4-yl)-3-pyridyl]-5-methyl-3-phenyl-isoxazole-4-carboxamide] | −0.68 | 8 nM | – | – |
| COc1nc(-c2ccc(CO)nc2)ccc1NC(=O)c1c(-c2ccccc2)noc1C [Example 27, N-[6-[6-(Hydroxymethyl)-3-pyridyl]-2-methoxy-3-pyridyl]-5-methyl-3-phenyl-isoxazole-4-carboxamide] | – | 2.3 nM | −0.83 | – |
| COc1nc(-c2ccc(=O)n(C)c2)ccc1NC(=O)c1c(-c2ccccc2)noc1C [Example 28, N-[2-Methoxy-6-(1-methyl-6-oxo-3-pyridyl)-3-pyridyl]-5-methyl-3-phenyl-isoxazole-4-carboxamide] | −0.61 | 5.2 nM | – | – |
| COc1cc(-c2cccc3nccn23)cnc1NC(=O)c1c(-c2ccccc2)noc1C [Example 29, N-(5-Imidazo[1,2-a]pyridin-5-yl-3-methoxy-2-pyridyl)-5-methyl-3-phenyl-isoxazole-4-carboxamide] | – | 1.5 nM | −0.53 | – |
| COc1nc(-c2cccc3nccn23)ccc1NC(=O)c1c(-c2ccccc2)noc1C [Example 30, N-(6-Imidazo[1,2-a]pyridin-5-yl-2-methoxy-3-pyridyl)-5-methyl-3-phenyl-isoxazole-4-carboxamide] | −0.42 | 5.1 nM | – | – |
| COc1nc(-c2ccc3[nH]nc(N)c3c2)ccc1NC(=O)c1c(-c2ccccc2)noc1C [Example 33, N-[6-(3-Amino-1H-indazol-5-yl)-2-methoxy-3-pyridyl]-5-methyl-3-phenyl-isoxazole-4-carboxamide] | – | 15.8 nM | – | −0.50 |
| COc1nc(-c2cccnc2)ccc1NC(=O)c1c(-c2ccccc2)noc1C [Example 37, N-(6-Methoxy-[2,3′-bipyridin]-5-yl)-5-methyl-3-phenylisoxazole-4-carboxamide] | – | 2.8 nM | −0.56 | – |
| COc1nc(-n2cncn2)ccc1NC(=O)c1c(-c2ccccc2)noc1C [Example 46, N-[2-Methoxy-6-(1,2,4-triazol-1-yl)-3-pyridyl]-5-methyl-3-phenyl-isoxazole-4-carboxamide] | −0.69 | 4.4 nM | – | – |
| CCOc1ncc(-c2ccc(NC(=O)c3c(-c4ccccc4)noc3C)c(OC)n2)cn1 [Example 48, N-[6-(2-Ethoxypyrimidin-5-yl)-2-methoxy-3-pyridyl]-5-methyl-3-phenyl-isoxazole-4-carboxamide] | – | 2.7 nM | −0.90 | – |
| COc1nc(-c2ccc3[nH]nnc3c2)ccc1NC(=O)c1c(-c2ccccc2)noc1C [Example 49, N-[6-(1H-Benzotriazol-5-yl)-2-methoxy-3-pyridyl]-5-methyl-3-phenyl-isoxazole-4-carboxamide] | −0.83 | 7.9 nM | – | – |
| COc1nc(-c2cccc3nc(N)nn23)ccc1NC(=O)c1c(-c2ccccc2)noc1C [Example 50, N-[6-(2-Amino-[1,2,4]triazolo[1,5-a]pyridin-5-yl)-2-methoxy-3-pyridyl]-5-methyl-3-phenyl-isoxazole-4-carboxamide] | −0.74 | 9.6 nM | – | – |
| COc1nc(-c2cncnc2)cnc1NC(=O)c1c(-c2ccccc2)noc1C [Example 56, N-(3-Methoxy-5-(pyrimidin-5-yl)pyrazin-2-yl)-5-methyl-3-phenylisoxazole-4-carboxamide] | – | 2.3 nM | −0.64 | – |
| COc1nc(-c2ccc3nc(N)nn3c2)ccc1NC(=O)c1c(-c2ccccc2)noc1C [Example 57, N-[6-(2-Amino-[1,2,4]triazolo[1,5-a]pyridin-6-yl)-2-methoxy-3-pyridyl]-5-methyl-3-phenyl-isoxazole-4-carboxamide] | – | 1.5 nM | −0.57 | – |

More lines, in order of falling Ki [2], values ahead:

| α5-GABAAR Relative Efficacy (to DMCM), Qpatch ([1]; Conc 1 μM) | Ki [2] | α5-GABAAR Relative Efficacy (to DMCM), Qpatch ([1]; Conc 0.3 μM) | α5-GABAAR Relative Efficacy (to DMCM), Qpatch ([1]; Conc 3 μM) | SMILES |
| --- | --- | --- | --- | --- |
| – | 18.1 nM | – | −0.79 | COc1nc(-c2nnco2)ccc1NC(=O)c1c(-c2ccccc2)noc1C [Example 58, N-[2-Methoxy-6-(1,3,4-oxadiazol-2-yl)-3-pyridyl]-5-methyl-3-phenyl-isoxazole-4-carboxamide] |
| – | 10.4 nM | – | −0.75 | COc1nc(-c2cnc(OCC(F)(F)F)nc2)ccc1NC(=O)c1c(-c2ccccc2)noc1C [Example 59, N-[2-Methoxy-6-[2-(2,2,2-trifluoroethoxy)pyrimidin-5-yl]-3-pyridyl]-5-methyl-3-phenyl-isoxazole-4-carboxamide] |
| −0.49 | 9.8 nM | – | – | COc1nc(-c2ncnn2C)ccc1NC(=O)c1c(-c2ccccc2)noc1C [Example 52, N-[2-Methoxy-6-(2-methyl-1,2,4-triazol-3-yl)-3-pyridyl]-5-methyl-3-phenyl-isoxazole-4-carboxamide] |
| −0.55 | 7.4 nM | – | – | COc1nc(-c2nccnc2N)ccc1NC(=O)c1c(-c2ccccc2)noc1C [Example 54, N-[6-(3-Aminopyrazin-2-yl)-2-methoxy-3-pyridyl]-5-methyl-3-phenyl-isoxazole-4-carboxamide] |
| −0.57 | 6.9 nM | – | – | COc1nc(-c2cncc(N)n2)ccc1NC(=O)c1c(-c2ccccc2)noc1C [Example 40, N-[6-(6-Aminopyrazin-2-yl)-2-methoxy-3-pyridyl]-5-methyl-3-phenyl-isoxazole-4-carboxamide] |
| −0.69 | 3.6 nM | – | – | COc1nc(-n2ccnc2)cnc1NC(=O)c1c(-c2ccccc2)noc1C [Example 44, N-(5-Imidazol-1-yl-3-methoxy-pyrazin-2-yl)-5-methyl-3-phenyl-isoxazole-4-carboxamide] |
| – | 2.8 nM | −0.60 | – | COc1nc(-c2ccncc2)ccc1NC(=O)c1c(-c2ccccc2)noc1C [Example 42, N-(6-Methoxy-[2,4′-bipyridin]-5-yl)-5-methyl-3-phenylisoxazole-4-carboxamide] |
| – | 1.8 nM | −0.87 | – | COc1ncc(-c2ccc(NC(=O)c3c(-c4ccccc4)noc3C)c(OC)n2)cn1 [Example 41, N-(2-Methoxy-6-(2-methoxypyrimidin-5-yl)pyridin-3-yl)-5-methyl-3-phenyl-isoxazole-4-carboxamide] |
| – | 1.3 nM | −0.92 | – | COc1nc(-c2cnc(C(=O)O)nc2)ccc1NC(=O)c1c(-c2ccccc2)noc1C [Example 60, 5-[6-Methoxy-5-[(5-methyl-3-phenyl-isoxazole-4-carbonyl)amino]-2-pyridyl]pyrimidine-2-carboxylic acid] |
| – | 1.2 nM | −0.65 | – | COc1nc(-c2cnc(N(C)C)nc2)ccc1NC(=O)c1c(-c2ccccc2)noc1C [Example 45, N-(6-(2-(Dimethylamino)pyrimidin-5-yl)-2-methoxypyridin-3-yl)-5-methyl-3-phenylisoxazole-4-carboxamide] |
